The values below come from US12121566B2, “Methods for treating gout” (Horizon Therapeutics USA, Inc., priority 2019, dated 2024).

The test system of series [1] is patients with chronic gout refractory to conventional therapy. The experiment in a line: Two replicate randomized, double-blind, placebo controlled six-month studies (Trial 1 and Trial 2): urate lowering and tophi. The class given is in vivo, human. Here is the method:
The efficacy of KXX was studied in adult patients with chronic gout refractory to conventional therapy in two replicate, multicenter, randomized, double-blind, placebo controlled studies of six months duration: Trial 1 and Trial 2. Patients were randomized to receive KXX 8 mg every 2 weeks or every 4 weeks or placebo in a 2:2:1 ratio.
Studies were stratified for the presence of tophi. Seventy-one percent (71%) of patients had baseline tophi. All patients were prophylaxed with an oral antihistamine, intravenous corticosteroid and acetaminophen. Patients also received prophylaxis for gout flares with non-steroidal anti-inflammatory drugs (NSAIDs) or colchicine, or both, beginning at least one week before KXX treatment unless medically contraindicated or not tolerated. Patients who completed the randomized clinical trials were eligible to enroll in a 2-year open label extension study.
To assess the efficacy of KXX in lowering uric acid, the primary endpoint in both trials was the proportion of patients who achieved plasma uric acid (PUA) less than 6 mg/dL for at least 80% of the time during Month 3 and Month 6.
The effect of treatment on tophi was a secondary efficacy endpoint and was assessed using standardized digital photography, image analysis, and a Central Reader blinded to treatment assignment. Approximately 70% of patients had tophi at baseline. A pooled analysis of data from Trial 1 and Trial 2 was performed as pre-specified in the protocols. At Month 6, the percentage of patients who achieved a complete response (defined as 100% resolution of at least one target tophus, no new tophi appear and no single tophus showing progression) was 45%, 26%, and 8%, with KXX 8 mg every 2 weeks, KXX 8 mg every 4 weeks, and placebo, respectively. The difference between KXX and placebo was statistically significant for the every-2-week dosing regimen, but not for the every-4-week dosing regimen.

In series [2] the test system is patients with symptomatic gout. The experiment in a line: Single-dose, dose-ranging trial: plasma uric acid and plasma uricase activity. The class given is in vivo, human. From the text: In some embodiments, patients or subjects of the present disclosure may have blood samples taken for PK analysis during treatment with KXX, either alone, or co-administered with an immunosuppressive agent, such as AZA. Although limited PK results have been reported in subjects receiving pegloticase, and no PK studies have been performed in subjects weighing ≥120 kg, the present disclosure provides PK analysis in patients receiving KXX treatment, either alone or co-administered with an immunosuppressive agent or therapy. Sundy et al. (JAMA 306(7):711-20, 2011) reported results from 24 subjects with refractory gout who received single doses from 0.5 to 12 mg of pegloticase. PK parameters included plasma uricase activity (pUox) and the plasma urate concentration (pUAc). […] It remains uncertain whether body mass affects drug distribution. Since pegloticase is administered as a single dose regardless of body mass, this is important to assess.
The duration of suppression of plasma uric acid appeared to be positively associated with pegloticase dose.

The subject of series [3] is patients with refractory chronic gout. The note with it: Phase 2 program; cited from earlier work.
Setting [4] is: post-hoc, if KXX stopped after 2 consecutive uric acid levels greater than 6 mg/dL.
The mark [5] stands for this setting: post-hoc, if KXX stopped when uric acid rose to greater than 6 mg/dL on a single occasion.

Take pegloticase: the “efficacy in patients with creatinine clearance less than or equal to 62.5 mL/min” value in series [1] (KXX 8 mg every 2 weeks) is reported as “No overall differences”. For the same substance, the “percentage of patients who achieved a complete response of tophi” value in series [1] (Month 6, pooled Trial 1 and Trial 2, KXX 8 mg every 2 weeks) is given as 45%. Besides, the “percentage of patients who achieved a complete response of tophi” value in series [1] (Month 6, pooled Trial 1 and Trial 2, KXX 8 mg every 4 weeks) was found to be 26%. For the same substance, in series [1] (Trial 1, 8 mg every 2 weeks, N 43), the “Number (%) of Subjects Who Met Response Criteria (plasma uric acid <6 mg/dL for at least 80% of the time during Months 3 and 6)” value (from here on “Number (%)”) is on record as 20 (47%) Number (%). For the same substance, the “Number (%)” value in series [1] (Trial 1, 8 mg every 4 weeks, N 41) was 8 (20%) Number (%). For the same substance, the “Number (%)” value in series [1] (Trial 2, 8 mg every 2 weeks, N 42) was 16 (38%) Number (%). In series [1] (Trial 2, 8 mg every 4 weeks, N 43), the “Number (%)” value was 21 (49%) Number (%). The “mean plasma uric acid level” value in series [1] (approximately 24 hours following the first dose, KXX 8 mg every 2 weeks group) is on record as 0.7 mg/dL. In addition, in series [1] (setting [4]), the efficacy outcome was “little change” and the “incidence of infusion reactions” value was “half”. Besides, in series [1] (setting [5]), the “reduction of success rates for the primary efficacy endpoint” value was “approximately 20%” and the “reduction of the incidence of infusion reactions” value was “approximately 67%”. Moreover, the “plasma uric acid versus dose” value in series [2] (0.5, 1, 2, 4, 8 or 12 mg, 24 patients) is “decreased with increasing pegloticase dose or concentrations”. Moreover, in series [2] (single doses of 8 mg and 12 mg, 1-hour intravenous infusion), the “duration of sustained decrease in plasma uric acid below 6 mg/dL” value is “more than 300 hours”. Moreover, in series [3], the dose-response plateau dose was 12 mg; the minimally effective dose is given as 4 mg; the “safe and optimally effective dose” value is on record as 8 mg.
